From patent EP2987533B1, “7-substituted piperazin-1-yl fluoroquinolone compounds, their use in the treatment of cancer, pharmaceutical compositions and a method for preparation” (priority 2014, dated 2016)

System: 60 human tumor cell line panel
Experiment: NCI 60 cell line one-dose SRB primary anticancer assay
Type: cell-based
Details: 60 cell lines assay in one dose, 10µM (title; head prints 10.0 mM), 48 h; for inhibition at 10 µM: Homo sapiens, read-out: MGI % (Mean growth inhibition percentage)
Description: A primary anticancer assay was performed for an approximately 60 human tumor cell line panel derived from nine neoplastic diseases, in accordance with the protocol of the Drug Evaluation Branch, National Cancer Institute, Bethesda, MD (Monks A. et al., J. Natl. Cancer Inst 1991, 83, 757-766; Boyd M.R. and Paull K.D., Drug. Dev. Res. 1995, 34, 91-109; Shoemaker R.H., Nat. Rev. Cancer 2006, 6, 813-823). Briefly, tested compounds were added to the culture at a single concentration (10^-5M), and the cultures were incubated for 48 h. End point determinations were made with a protein binding dye, sulforhodamine B (SRB). The results for each tested compound were reported as the growth percentage of the treated cells when compared to that of the untreated control cells. The percentage growth was evaluated spectrophotometrically versus controls not treated with test agents.

Row | SMILES | Most sensitive cell lines | PCE (Positive cytotoxic effect: ratio between number of cell lines with percentage growth inhibition from 10 to >100 and total number of cell lines) | RGI % (Range of growth inhibition percentage) [%] | inhibition at 10 µM [%]
1 | COc1ccc(S(=O)(=O)N2CCN(c3cc4c(cc3F)c(=O)c(C(=O)O)cn4C3CC3)CC2)cc1OC [Compound 4b] | NSC Lung Cancer (HOP-62, HOP-92), CNS Cancer (SNB-75), Melanoma (LOX IMVI), Renal Cancer (UO-31), Breast Cancer (T-47D) | 6/58 | 35.09 to 10.43 | 1.84
2 | O=C(O)c1cn(C2CC2)c2cc(N3CCN(CCN4CCOCC4)CC3)c(F)cc2c1=O [Compound 8b] | NSC Lung Cancer (HOP-92, NCI-H522), Melanoma ( MALME-3M), Renal Cancer (UO-31), Prostate Cancer (PC-3) | 5/57 | 24.51 to 10.05 | -2.2
3 | O=C(O)c1cn(C2CC2)c2cc(N3CCN(CCN4C(=O)c5ccccc5C4=O)CC3)c(F)cc2c1=O [Compound 9b] | CNS Cancer (SNB-75), Renal Cancer (UO-31), Breast Cancer (MCF7) | 3/58 | 36.83 to 13.18 | -2.69
4 | COc1ccc(S(=O)(=O)N2CCN(c3cc4c(cc3F)c(=O)c(C(=O)O)cn4C3CC3)CC2)c(OC)c1 [Compound 5b] | Leukemia (CCRF-CEM, HL-60(TB), K-562, MOLT-4, PRMI-8226, SR), NSC Lung Cancer (HOP-62, NCI-H226), CNS Cancer (SF-268, SF-539, SNB-19, SNB-75), Melanoma (LOX IMVI, SK-MEL-5, UACC-62), Renal Cancer (A498, UO-31), Breast Cancer (T-47D, MDA-MB-468) | 19/58 | 46.83 to 10.48 | 7.33
5 | O=C(O)c1cn(C2CC2)c2cc(N3CCN(CCCN4C(=O)c5ccccc5C4=O)CC3)c(F)cc2c1=O [Compound 10b] | Leukemia (CCRF-CEM, PRMI-8226), Renal Cancer (UO-31) | 3/57 | 38.76 to 13.64 | -4.16
6 | CCn1cc(C(=O)O)c(=O)c2cc(F)c(N3CCN(S(=O)(=O)c4ccc(OC)c(OC)c4)CC3)cc21 [Compound 4a] | Leukemia (MOLT-4, SR), CNS Cancer (SF-268, SNB-75) Melanoma (LOX IMVI, M14), Renal Cancer (UO-31), Prostate Cancer (PC-3), Breast Cancer (T-47D) | 9/58 |  | 2.33
7 | O=C(O)c1cn(C2CC2)c2cc(N3CCN(S(=O)(=O)c4ccc(Cl)cc4)CC3)c(F)cc2c1=O [Compound 1b] | Melanoma (LOX IMVI, M14), Renal Cancer (A498, CAKI-1, UO-31), Prostate Cancer (PC-3), Breast Cancer (T-47D) | 7/53 | 59.75 to 10.12 | 3.5
8 | O=C(O)c1cn(C2CC2)c2cc(N3CCNCC3)c(F)cc2c1=O [Ciprofloxacin (b), Ciprofloxacin, reference compound] | Renal Cancer (UO-31, A498) | 2/57 | 28.85 to 13.76 | -1.41
